# Assay results as given in paper PMC6272715, “Discovery of Novel Small Molecule Anti-HCV Agents via the CypA Inhibitory Mechanism Using O-Acylation-Directed Lead Optimization” (Molecules, 2015).
# Legend:
# [1] = rats, intravenous injection of 25 (2 mg∙kg^−1)
# CypA = CypA (Homo sapiens, UniProt P62937); assay: CypA enzyme inhibition assay (chymotrypsin-coupled PPIase assay); type: biochemical; conditions: mean ± SD of five independent experiments
# Protocol: The PPIase activity of CypA was conducted in a coupled assay with chymotrypsin using the synthetic tetrapeptide N-succinyl-Ala-Ala-Pro-Phe-p-nitroanilide (Sigma, Shanghai, China) as described in [34] with small modifications. The assay buffer (20 mM Tris-HCl, 50 mM NaCl, pH 7.8) and CypA were precooled at 4 °C and mixed with 0.4 mg∙mL^−1 chymotrypsin (20 mg∙mL^−1 in 1 mM HCl). The reaction was initiated by adding peptide substrate (2 mg∙mL^−1 in 500 mM LiCl in tetrahydrofuran (THF)). […] Absorbance readings were collected every 0.1 s and the temperature was controlled at 4 °C during the assay. The progress curves were analyzed by nonlinear least-squares fit. The inhibition assays of compounds were performed in the same manner as above-mentioned. […] of test compounds in DMSO, at various concentrations, was added to the CypA solution in the assay buffer. After being preincubated for 1 h at 4 °C, the assay was started by the addition of chymotrypsin and the substrate. To calculate the half-maximal inhibitory concentration (IC50), a percent of the remaining PPIase activity was plotted against the common logarithm of the compound concentration, and the data were fitted using the sigmoidal fitting model of Origin 7.0 software.
# JFH1-2a (S282T) virus = assay: HCV virus assay, mutant JFH1-2a (S282T) virus strain; type: cell-based; conditions: Hepatitis C virus, read-out: Anti-HCV Activity (Virus Assay) EC50 ± SD JFH1-2a (S282T)
# Sequence of CypA (P62937 whole entry): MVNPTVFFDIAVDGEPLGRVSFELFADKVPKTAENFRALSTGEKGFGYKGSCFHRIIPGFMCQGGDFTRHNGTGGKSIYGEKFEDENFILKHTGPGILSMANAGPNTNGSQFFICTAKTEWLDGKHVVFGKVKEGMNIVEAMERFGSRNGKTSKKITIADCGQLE
compound,measurement,setting,value
"CCCCCCCC(=O)Oc1cccc(O)c1C(=O)NC(=O)NC1c2ccccc2-c2ccccc21 [Compound 25, 1-(2-Hydroxy-6-n-Octanoyloxybenzoyl)-3-(9H-fluoren-9-yl)-urea]",plasma concentration after 5 min (mean ± SD),[1],20.47 ± 9.99 ng/mL
same,IC50,CypA,> 5000 nM
same,EC50,JFH1-2a (S282T) virus,290 ± 70 nM
